Reference: patent US8609651B2, “Pharmaceutical compositions of benzodiazepines and method of use thereof” (Jazz Pharmaceuticals, Inc., priority 2006, dated 2013)
In brackets after ≈: the same amount, converted by molar mass.

Tests used:
[1] = Solubility of clonazepam in glycol ethers at 25° C.; conditions: neat solvent, organic solvent or mixture, thermodynamic from solid
Method: 10 mg of clonazepam was weighed into glass vials used in the Pfeiffer mono-dose spray system (Pfeiffer of America, Princeton, N.J.). Four samples of each of four solvents were prepared as follows. 130-μL of each solvent was pipetted into the vial, which was then stoppered with a black chlorobutyl rubber stopper.
The vials were removed from the chamber, placed inside polyethylene centrifuge vials, and centrifuged for 2 minutes at 5000 rpm. 10 μL of liquid was then sampled from each vial, accurately weighed, and diluted with 1 mL of acetonitrile. The drug concentration was analyzed by UV using an Agilent HPLC system with no column, 10 μL injection volume, acetonitrile mobile phase, 0.3 mL/min and UV detection at 350 nm.

[2] = Saturated solubility in receiver fluid systems (HPLC); conditions: 37 °C, thermodynamic from solid
Method: Following the stability studies, a suitable receiver fluid was developed in order to ensure that sink conditions for tested drug were such that the drug release was limited by the solubility of the drug in the receiver fluid. […] Briefly, drug was saturated into different receiver fluid systems by adding excess drug and allowed to stir with a magnetic flea over a period of 2 h at 37° C. Each saturated solution was then filtered using a 0.2 μm syringe filter and the resultant solution was assayed via HPLC.
Calibration curves for clonazepam were constructed between 0.2 to 10 μg/mL with appropriate replicates to ensure repeatability and linearity.
Standards were prepared in receiver fluid (10% ethanol in buffer 6). […] The filtration at room temperature was performed as quickly as possible to minimize any drug precipitation as the temperature dropped from 37° C. during filtration.

[3] = qEEG mapping in volunteers; type: in vivo; conditions: human, oral
[4] = Psychomotor, cognitive and subjective tests in volunteers; type: in vivo; conditions: human
[5] = Human safety and tolerability (side effects); type: in vivo
Description: Somnolence was reported by 10 of 15 (approximately 67%) subjects after intranasal dosing and 13 of 15 (approximately 87%) subjects after oral dosing. Approximately 93% of the subjects reported somnolence or sedation ( 11/15 for somnolence and 3/15 for sedation) after intravenous dosing. Nasal discomfort was reported by 12 of 15 subjects (approximately 80%) after intranasal dosing.

[6] = Solubility of clonazepam in binary solvent mixtures; conditions: triacetin/glycofurol 50:50 mixture, 25 °C, organic solvent or mixture, thermodynamic from solid
Method: Further, the solubility of clonazepam in binary mixtures of Transcutol® (TC), triacetin (TA), glycofurol (GF) and propylene glycol (PG) was evaluated. Solubility limits of clonazepam were determined for the following formulations:
Excess drug (50 mg) was capped with about 500 μL of the solvent matrix in a 1.5 mL microfuge tube and the solution was mixed on a vortex shaker for several minutes. Thereafter, the solution was placed in an ultrasonic bath at 25° C. for 45 minutes. The temperature was regulated with a thermometer and controlled by adding ice into the bath. After 15 minutes of standing, the solutions were centrifuged at 3,000×g for 30 minutes. Solutions were then stored for 16 hours at 25° C. in an ICH cabinet protected from light.

[7] = Solubility of benzodiazepines in DEGEE (Transcutol) at 25° C. and −16° C.; conditions: organic solvent or mixture, thermodynamic from solid
Method: The solubilities of several other benzodiazepines were measured in DEGEE (diethylene glycol monoethyl ether, transcutol) by the techniques of Example 1. Initially, 10 mg of the drug was loaded in the glass vial and 130-μL of DEGEE was added, and the samples were sonicated for 10 minutes. […] Samples were stored at −16° C. and 25° C. overnight, and centrifuged (5000 rpm, 2 minutes, −10° C. and 23° C. for the −16° C. and 25° C. samples, respectively). […] Clonazepam was measured by UV at 350 nm; all others at 300 nm.

[8] = Solubility of clonazepam in neat solvents
Method: The solubility of clonazepam in a number of neat solvents was determined using standard methods.

[9] = in vivo; cited from earlier work
[10] = Solubilities of clonazepam in water-containing solvents; type: physicochemical; conditions: 25 °C
Method: The vials were stored at 25° C. for approximately 1 day. Prior to sampling, the vials were centrifuged at 5000 rpm for 2 minutes at 23° C. The results are shown below; neat solvent solubilities from Example 11 are included for reference. Increased water content decreases solubility substantially.

O=C1CN=C(c2ccccc2Cl)c2cc([N+](=O)[O-])ccc2N1 [Clonazepam, 5-(2-chlorophenyl)-1,3-dihydro-7-nitro-2H-1,4-benzodiazepin-2-one]
solubility ([1]; 1,2-dimethyxoethane): 39.3 mg/mL (≈ 124 mM) | solubility ([1]; di(ethylene glycol) diethyl ether): 19 mg/mL (≈ 60.2 mM) | solubility ([1]; di(ethylene glycol) methyl ether): 56.4 mg/mL (≈ 179 mM) | solubility ([1]; diethylene glycol monoethyl ether (DEGEE)): 41.8 mg/mL (≈ 132 mM) | solubility at 2 h ([2]; pH 6, aqueous buffer, buffer pH 6, 37° C.): 0.0137 mg/mL (≈ 0.0433 mM) | solubility at 2 h ([2]; pH 6, aqueous with cosolvent or surfactant or cyclodextrin, 20% ethanol in buffer pH6, 37° C.): 0.0823 mg/mL (≈ 0.261 mM) | solubility at 2 h ([2]; pH 6, aqueous with cosolvent or surfactant or cyclodextrin, receiver solution, 10% ethanol in buffer pH 6, 37° C.): 0.0293 mg/mL (≈ 0.0929 mM) | time after dosing at which EEG pattern (increased delta and beta, decreased alpha and theta) was noted [3]: approximately 2 hours | time at which psychomotor and subjective effects were first apparent ([4]; intranasal): approximately 30 minutes | time at which psychomotor and subjective effects were first apparent ([4]; intravenous): approximately 30 minutes | time at which psychomotor and subjective effects were first apparent ([4]; oral): approximately 2 hours | subjects reporting somnolence ([5]; after intranasal dosing, 10 of 15): approximately 67% | subjects reporting nasal discomfort ([5]; after intranasal dosing, 12 of 15): approximately 80% | subjects reporting somnolence or sedation ([5]; after intravenous dosing): Approximately 93% | subjects with sedation ([5]; after intravenous dosing): 3/15 | subjects with somnolence ([5]; after intravenous dosing): 11/15 | subjects reporting somnolence ([5]; after oral dosing, 13 of 15): approximately 87% | changes in laboratory parameters ([5]; human): no clinically relevant changes | Somnolence reported in the study ([5]; human, all routes): 75.6% | nasal discomfort reported in the study ([5]; human, all routes): 26.7% | solubility at 16 h [6]: ~36.4 mg/mL (≈ 115 mM) | solubility ([7]; 25 °C): 38.9 mg/mL (≈ 123 mM) | solubility ([7]; -16 °C): 35.3 mg/mL (≈ 112 mM) | solubility ([8]; PEG 200 (neat solvent), organic solvent or mixture): 30.3 mg/mL (≈ 96 mM) | solubility ([8]; PEG 300 (neat solvent), organic solvent or mixture): 37 mg/mL (≈ 117 mM) | solubility ([8]; Transcutol (neat solvent), organic solvent or mixture): 38.7 mg/mL (≈ 123 mM) | solubility ([8]; glycofurol (neat solvent), organic solvent or mixture): 67.3 mg/mL (≈ 213 mM) | solubility ([8]; propylene glycol (neat solvent), organic solvent or mixture): 3.4 mg/mL (≈ 10.8 mM) | solubility ([8]; triacetin (neat solvent), organic solvent or mixture): 5.8 mg/mL (≈ 18.4 mM) | solubility ([8]; water): < 0.1 mg/mL | amount excreted unchanged in the urine [9]: less than 0.5 % of a dose | excreted in the feces [9]: 9-27 % of a dose | half-life [9]: 18 to 50 h | roughly equal dose (potency equivalence) [9]: ~0.25 mg | solubility ([10]; 1,2-dimethyxoethane / pH 6.8 buffered water mixture (20:80), pH 6.8, aqueous with cosolvent or surfactant or cyclodextrin, kinetic from dmso stock, 1,2-dimethyxoethane 20% solvent, 80% pH6.8 buffered water, 25° C.): 0.18 mg/mL (≈ 0.57 mM) | solubility ([10]; 1,2-dimethyxoethane / pH 6.8 buffered water mixture (40:60), pH 6.8, aqueous with cosolvent or surfactant or cyclodextrin, kinetic from dmso stock, 1,2-dimethyxoethane 40% solvent, 60% pH6.8 buffered water, 25° C.): 0.64 mg/mL (≈ 2.03 mM) | solubility ([10]; 1,2-dimethyxoethane / pH 6.8 buffered water mixture (60:40), pH 6.8, aqueous with cosolvent or surfactant or cyclodextrin, kinetic from dmso stock, 1,2-dimethyxoethane 60% solvent, 40% pH6.8 buffered water, 25° C.): 9.2 mg/mL (≈ 29.1 mM) | solubility ([10]; 1,2-dimethyxoethane / pH 6.8 buffered water mixture (80:20), pH 6.8, aqueous with cosolvent or surfactant or cyclodextrin, kinetic from dmso stock, 1,2-dimethyxoethane 80% solvent, 20% pH6.8 buffered water, 25° C.): 29.6 mg/mL (≈ 93.8 mM) | solubility ([10]; 1,2-dimethyxoethane, neat solvent, organic solvent or mixture, 1,2-dimethyxoethane 100% solvent, 0% water, 25° C. (neat, from Example 11)): 39.3 mg/mL (≈ 124 mM) | solubility ([10]; pH 6.8, aqueous with cosolvent or surfactant or cyclodextrin, kinetic from dmso stock, Di (ethylene glycol) methyl ether 20% solvent, 80% pH6.8 buffered water): 0.26 mg/mL (≈ 0.824 mM) | solubility ([10]; pH 6.8, aqueous with cosolvent or surfactant or cyclodextrin, kinetic from dmso stock, Di (ethylene glycol) methyl ether 40% solvent, 60% pH6.8 buffered water): 1 mg/mL (≈ 3.17 mM) | solubility ([10]; pH 6.8, aqueous with cosolvent or surfactant or cyclodextrin, kinetic from dmso stock, Di (ethylene glycol) methyl ether 60% solvent, 40% pH6.8 buffered water): 2.8 mg/mL (≈ 8.87 mM) | solubility ([10]; pH 6.8, aqueous with cosolvent or surfactant or cyclodextrin, kinetic from dmso stock, Di (ethylene glycol) methyl ether 80% solvent, 20% pH6.8 buffered water): 18.9 mg/mL (≈ 59.9 mM) | solubility ([10]; pH 6.8, aqueous with cosolvent or surfactant or cyclodextrin, kinetic from dmso stock, Di (ethyleneglycol) diethyl ether 20% solvent, 80% pH6.8 buffered water): 0.31 mg/mL (≈ 0.982 mM) | solubility ([10]; pH 6.8, aqueous with cosolvent or surfactant or cyclodextrin, kinetic from dmso stock, Di (ethyleneglycol) diethyl ether 40% solvent, 60% pH6.8 buffered water): 1.23 mg/mL (≈ 3.9 mM) | solubility ([10]; pH 6.8, aqueous with cosolvent or surfactant or cyclodextrin, kinetic from dmso stock, Di (ethyleneglycol) diethyl ether 60% solvent, 40% pH6.8 buffered water): 8.5 mg/mL (≈ 26.9 mM) | solubility ([10]; pH 6.8, aqueous with cosolvent or surfactant or cyclodextrin, kinetic from dmso stock, Di (ethyleneglycol) diethyl ether 80% solvent, 20% pH6.8 buffered water): 38.8 mg/mL (≈ 123 mM) | solubility ([10]; pH 6.8, aqueous with cosolvent or surfactant or cyclodextrin, kinetic from dmso stock, Diethylene glycol monoethyl ether 20% solvent, 80% pH6.8 buffered water): 0.3 mg/mL (≈ 0.95 mM) | solubility ([10]; pH 6.8, aqueous with cosolvent or surfactant or cyclodextrin, kinetic from dmso stock, Diethylene glycol monoethyl ether 40% solvent, 60% pH6.8 buffered water): 0.52 mg/mL (≈ 1.65 mM) | solubility ([10]; pH 6.8, aqueous with cosolvent or surfactant or cyclodextrin, kinetic from dmso stock, Diethylene glycol monoethyl ether 60% solvent, 40% pH6.8 buffered water): 4.5 mg/mL (≈ 14.3 mM) | solubility ([10]; pH 6.8, aqueous with cosolvent or surfactant or cyclodextrin, kinetic from dmso stock, Diethylene glycol monoethyl ether 80% solvent, 20% pH6.8 buffered water): 21.8 mg/mL (≈ 69 mM) | solubility ([10]; di(ethylene glycol) diethyl ether, neat solvent, organic solvent or mixture, Di (ethyleneglycol) diethyl ether 100% solvent, 0% water, 25° C. (neat, from Example 11)): 19 mg/mL (≈ 60.2 mM) | solubility ([10]; di(ethylene glycol) methyl ether, neat solvent, organic solvent or mixture, Di (ethylene glycol) methyl ether 100% solvent, 0% water, 25° C. (neat, from Example 11)): 56.4 mg/mL (≈ 179 mM) | solubility ([10]; diethylene glycol monoethyl ether (DEGEE), neat solvent, organic solvent or mixture, Diethylene glycol monoethyl ether 100% solvent, 0% water, 25° C. (neat, from Example 11)): 41.8 mg/mL (≈ 132 mM)
